SMILES strings stand for the structures.

With `CCCCCC(CC(=O)Nc1cc(C(=O)O)ccc1C(C)(C)C)c1ccc(C)cc1OC` (centres undefined), the melting point lay within 164 to 165 °C. The value for `CCN(C(=O)c1cnc(N2CC(C)(C)NC2=O)nc1N)c1cccc(C(F)(F)F)c1` was 186 to 187 °C. The result for `O=c1nc(N2CCC(O)CC2)sc2ncccc12` reads 206 to 207 °C; that for `N#CC(C#N)(CCSC(F)(F)C(F)Cl)CC(F)(F)C(F)(F)C(F)(F)C(F)F` (centres undefined), 78 to 80 °C.

`Clc1nc(-c2ccccc2)cc2ccccc12`: the melting point fell in the range of 75 to 77 °C. The result for `COC(=O)CCC(=O)c1ccc(SC(=O)N(C)C)cc1` reads 98 to 100 °C; that for `CCc1ccccc1-c1nc(-c2ccc(Cl)cc2)n[nH]1`, 118 to 120 °C. Regarding `CCCCCCCCCCCCn1nnc(CCC(=O)Nc2ccc(F)cc2F)n1`, the melting point fell in the range of 86 to 87 °C.

As to `Nc1nc(-c2cc(Cl)ccc2Cl)nc(N2CC=CC2)n1`, the melting point is 205 to 206 °C. Compound `CCc1nc(/C=C/c2cn(-c3ccccc3)nc2O)cs1` gave a melting point of 222 to 224 °C. The compound `CCOC(=O)N1CCN(c2nc(N(C(C)=O)C3CC3)ccc2[N+](=O)[O-])CC1` displayed a melting point of 90 to 93 °C. The value for `Fc1ccccc1-c1cnc2nncn2n1` was 193 to 196 °C. The value for `CCCCCCCNC(=O)N(C)c1cccc(-c2ccc(C=CC(=O)O)c(F)c2)c1` was 148 to 149 °C.

`O=C(O)Cn1c(-c2ccc([N+](=O)[O-])cc2)nc2cccnc21` gave a melting point of 249 to 251 °C. The result for `CNC(=O)c1nc(Cl)c(Cl)[nH]1` reads 240 °C; that for `NC(=O)N1CC(OCc2cccc(Cl)c2)C1`, 163 to 166 °C. The result for `Cc1ccc(S(=O)(=O)Oc2cccnc2)cc1` reads 76 to 78 °C. The result for `CCOC(=O)C(CC(N)=O)(C(=O)OCC)n1cccc1` reads 94 to 95 °C. `CN1C(=O)CNC(c2cccc(Cl)c2)c2cc(C(O)(c3ccc(Cl)cc3)c3cncn3C)ccc21` (centres undefined) displayed a melting point of 208 °C. The value for `CNC1=CC(=O)N(C)C1` was 132 to 134 °C.

`CNC(=O)c1cc(C#N)cc(C)c1N` displayed a melting point of 202 to 203 °C. The value for `O=C(Nc1ccc(O)cc1)c1ccc(OC2CCCCO2)cc1` (centres undefined) was 173 to 174 °C; that for `CCC1c2c([nH]c(=O)c(O)cc2=O)CC(Cl)C1Cl` (centres undefined) was 197 °C; that for `COC1=C(OC)C(=O)c2c(NC(C)=O)cccc2C1=O` was 162 to 163 °C. Consider `CC(=O)OCc1cc2c(c3c1CCC3)C(=O)c1ccccc1C2=O`, for which the melting point lay in the range of 160 to 161 °C.

For the compound `Oc1ccc(Oc2cccc(Cl)n2)cc1`, the melting point lay in the range of 125 to 130 °C. On to `COc1cc2c(cc1OC)C(c1ccccc1)N(C(=O)NCCN(C)C)CC2` (centres undefined), for which the melting point was found to be 60 °C. The value for `Cc1ncncc1C(=O)Nc1ccc(-n2nc(C(F)(F)F)c(Cl)c2C2CC2)c(F)c1` was 183 to 185 °C. The result for `COc1ccc2c(c1)CCC1C2CCC2(C)C1CCC2N(C)CCCO` (centres undefined) reads 122 to 124 °C; that for `O=C(Nc1ccc(C(=O)N2Cc3ccccc3Oc3ccccc32)c(Cl)c1)c1ccccc1-c1ccccc1`, 145 to 188 °C. The result for `CCc1nc(N)nc(N)c1CCCCc1cc(Cl)c(Cl)cc1Cl` reads 158 to 163 °C; that for `CCOC(=O)CCSc1nnsc1-c1ccccc1`, 57.5 to 58.5 °C; that for `CS(=O)(=O)c1ccc(-c2sc(-c3ccccc3Cl)nc2-c2ccc(F)cc2F)cc1`, 166 to 169 °C. In the case of `Cc1c(-c2ccccc2)[nH]c(=O)n1C1CCN(CCc2ccccc2)CC1`, the melting point was 153 to 155 °C. Turning to `CC(C)c1nc(CO)n(Cc2ccccc2[N+](=O)[O-])c1Sc1cc(Cl)cc(Cl)c1`, the melting point was in the range of 160 to 166 °C. Take `Cn1nnnc1-c1cn(C)c2cc(O)ccc2c1=O`: the melting point is above 320 °C. The result for `CC1(C)Oc2ccc(C#N)cc2C(n2ccccc2=O)C1=O` (centres undefined) reads 178 °C; that for `CCOC(=O)[C@H](Cc1cc(OC)c(OC)cc1I)NC=O`, 151 to 152 °C; that for `CCSC1=CCC2C3CCC4=CC(=O)C=CC4(C)C3C(O)CC12C` (centres undefined), 216 to 218 °C. The value for `CCCCCCCCC(O)Cc1ccc(OCc2ccccc2)c(OCc2ccccc2)c1` (centres undefined) was 55 to 57 °C; that for `CCCCc1nnc(SC)n1Cc1ccc(-c2ccccc2-c2nnn[nH]2)cc1` was 100 to 102 °C; that for `COc1ccc(C(=O)Nc2ccccc2)cc1NCc1ccc(C(=O)O)cc1` was above 240 °C. The result for `Cc1oc(-c2ccccc2)nc1CCOc1ccc(CC(C)(C)C(=O)O)cc1` reads 133 to 134 °C; that for `CSCc1cc(O)nc(CSC)n1`, 101 to 102 °C. For the compound `OCc1cc2cc(-c3ccc(OC(F)(F)F)cc3)ccc2n1Cc1ccccc1`, the melting point was in the range of 108 to 109 °C.

In turn, `O=[N+]([O-])c1ccc(-n2nc(CO)c3c2CCCC3)cc1` showed a melting point of 219 °C.

In turn, `COc1ccc(Nc2nc(-c3ccc(OC)c(OC)c3)cs2)nc1` came in with a melting point of 222 to 225 °C. The result for `c1ccc(N(c2ccccc2)c2ccsc2)cc1` reads 79 to 82 °C. The result for `CCOC(=S)CC/C(C)=C/Cc1c(OC)c(C)c2c(c1OC(C)=O)C(=O)OC2` reads 81 to 84 °C; that for `Oc1ccc2c(c1)CCC(CNCC(O)c1ccc(Cl)cc1)C2` (centres undefined), 150 to 153 °C; that for `CCOC(=S)c1cnc(C)nc1NC(=O)Nc1ccccc1Cl`, 172 to 173 °C. As to `CCOC(=O)c1ccc(OCCC2CN(c3ccc(SC)nn3)CCO2)cc1` (centres undefined), the melting point was 111 °C. The value for `CCOC(=NC(=O)CCl)N1Cc2ccccc2-c2ccccc2C1` was 87 to 89 °C; that for `O=C(CCC(=O)N1CCCCC1)c1ccc(F)cc1` was 70 to 71 °C; that for `CC(C)(CO)CCCC(O)CCCC(O)CCCC(C)(C)CO` (centres undefined) was 85 to 86 °C. The result for `CC(C)(C)OC(=O)c1nc(-c2ccc(Cl)cc2Cl)n(-c2ccc(Cl)cc2)c1S(C)(=O)=O` reads 130 °C; that for `CC(=O)CSc1ncc(C)n1C`, 65 to 67 °C. `CC(=O)Nc1nc2c(s1)-c1c(cnn1C(N)=O)CC2` returned a melting point of 265 to 270 °C. `CC(C)NCC(O)COc1cccc2nsnc12` (centres undefined) came in with a melting point of 100 to 102 °C.

`C=C1CCC2C3CC(=O)c4cc(OC(C)=O)ccc4C3CCC12C` (centres undefined) showed a melting point of 91 to 94 °C. The result for `COc1ccc(C2=NOC(CN=C=S)C2)cc1` (centres undefined) reads 92 to 94 °C; that for `COC(=O)c1sccc1Oc1ncc(OC)c(OC)n1`, 107 to 109 °C; that for `CC(=O)NC1CCN(c2c(F)cc3c(=O)c(C(=O)O)cn4c3c2CCC4C)CC1` (centres undefined), 274 to 277 °C.

Compound `O=C1c2ccccc2C(=O)c2sc(-c3ccc(F)cc3F)nc21` returned a melting point above 260 °C. The value for `CCSC(C)(C)C(=O)CC(=O)Nc1cc(NC(=O)C(CC)Oc2ccc(C(C)(C)CC)cc2C(C)(C)CC)ccc1Cl` (centres undefined) was 65 to 68 °C; that for `Cc1nc2c(N)nc3ccccc3c2n1OC(C)C` was 243 °C; that for `Cc1ccc(N2CCN(CCCCc3ccc(C4CCC(=O)N4)cc3)CC2)cc1` (centres undefined) was 164 to 165 °C. The result for `CCOC(=O)CNC(=O)Oc1cccc2ccc(C)nc12` reads 118 to 120 °C; that for `CN(C)CCNc1cc(Cl)nc(-c2ccccc2)n1`, 140 to 145 °C.

As to `CC(C)(CCl)C(=O)N(O)Cc1ccccc1`, the melting point lay within 90 to 92 °C. The value for `CC(C)(C)OC(=O)[C@@H]1CCC(=O)N1C(=O)OC(C)(C)C` was 53 to 55 °C; that for `CCc1cccc2c1[nH]c1c2ccc2c(C=O)c[nH]c21` was above 250 °C.

Compound `CCCCCCCCCCCCCCCCCCCCC(=O)Nc1ccn(C2OC(CO)C(O)C2O)c(=O)n1` (centres undefined) returned a melting point of 139 to 142 °C.

In turn, `CC(C)c1cc(C(=O)O)cs1` came in with a melting point of 64 to 67 °C. The result for `CSc1ccc2c(=O)c(SC)cn(C)c2c1` reads 154 to 155 °C; that for `Nc1ccc(C(=O)c2c(F)cccc2F)c(N)n1`, 179 to 181 °C; that for `c1ccc2c(c1)CCc1ccccc1C21CO1`, 79 to 80 °C. The value for `OCc1cc(F)c(Cl)nc1Cl` was 65 to 67 °C; that for `CCCC1=C(C(=O)OCC)C(c2cccc3c2OCCC3)c2c[nH]nc2N1` (centres undefined) was 159 to 161 °C; that for `COc1c2c(c(OC)c(OC)c1OC)CCC(CCOc1ccc(-c3ccccc3)cc1)CC2` was 115 to 120 °C. The value for `O=C(Nc1cnc2c(c1)nc1n2CCC1O)c1cc2cc(C(F)(F)F)cnc2n1Cc1cccc(F)c1` (single isomer, unassigned; (-)) was 279 to 280 °C; that for `CC(C)(C)c1nc(C=Cc2cccnc2)ncc1O` was 150 to 151 °C. `O=C1OC(CCO)C(O)=C1OCc1ccccc1` (centres undefined) yielded a melting point of 98 to 99 °C. Consider `Cc1ccc(-c2cccc(C#N)c2)cc1`, for which the melting point is 59 to 61 °C. The value for `CC(=O)NC[C@H]1CN(c2ccc(N3CCC(O)CC3)cc2)C(=O)O1` was 64 to 66 °C; that for `CC(C)Nc1cccnc1N1CCN(C(=O)c2ccc(C(=O)N3CCNCC3)cc2)CC1` was 175 to 176 °C; that for `O=C1Cc2cccc(Oc3ccc(Cl)cc3)c2O1` was 100 to 102 °C. The result for `O=C(O)C(=O)c1ccc(OCCOc2ccnc3ccccc23)cc1` reads 271 °C. The result for `CC(C)(c1cc(Cl)ccc1O)c1cc(Cl)ccc1O` reads 142 °C. The compound `COc1ccc(CNc2ncc[nH]2)cc1OC1CCCC1` displayed a melting point of 114 to 115 °C. The result for `C=CCOc1ccc(Cl)cc1NC(=O)Cc1ccc(OC)c(OC2CCCC2)c1` reads 75 to 76.5 °C. The value for `COc1cccc(C(=C/C=C/C(=O)NCCCCc2cccnc2)c2cccc(OC)c2)c1` was 69 to 73 °C; that for `O=S1NC(Cc2cc3cc(F)ccc3o2)=NO1` (centres undefined) was 144 to 145 °C; that for `O=[N+]([O-])c1cc(Cl)c2cccnc2c1O` was 201 to 202 °C.

For the origin of these results see a melting point compilation (Tetko et al.; mined from patent text by program, amines drawn as free bases though some values may be those of a salt).
